Reference: paper PMC6979384, “Characterization of the plant homeodomain (PHD) reader family for their histone tail interactions” (Epigenetics & Chromatin, 2020)
“Also recorded” adds a separate entry of the source.

Tests used:
Assay in all cases: Histone peptide microarray
Format in all cases: binding, human
BAZ2B = settings: GST-tagged BAZ2B; sheet Array Heatmap; each array performed twice, total n = 4
Outline: (§1)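 Binding of recombinant GST-fused PHD readers (0.5 μM) is detected on an array of 293 histone peptides, modified singly or in combination. An optimized array protocol is followed, and each intensity is the average of quadruplicate measurements with standard deviation.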

BPTF (PB) = settings: GST-tagged BPTF (PB = PHD + Bromodomain); sheet Array Heatmap; each array performed twice, total n = 4
Outline: as §1

CHD4 (PPCC) = settings: for Array Heatmap signal (histone peptide microarray): GST-tagged CHD4 (PPCC = Dual PHD + Dual Chromodomain), sheet Array Heatmap, each array performed twice, total n = 4
Outline: as §1

CHD5 (PCC) = settings: GST-tagged CHD5 (PCC = PHD + Dual Chromodomain); sheet Array Heatmap; each array performed twice, total n = 4
Outline: as §1

CHD5 (PPCC) = settings: GST-tagged CHD5 (PPCC = Dual PHD + Dual Chromodomain); sheet Array Heatmap; each array performed twice, total n = 4
Outline: as §1

DIDO1 = settings: GST-tagged DIDO1; sheet Array Heatmap; each array performed twice, total n = 4
Outline: as §1

DPF2 (PPC2W2) = settings: GST-tagged DPF2 (PPC2W2 = Dual PHD + C2W2-type Zn-finger); sheet Array Heatmap; each array performed twice, total n = 4
Outline: as §1

ING1 = settings: GST-tagged ING1; sheet Array Heatmap; each array performed twice, total n = 4
Outline: as §1

ING4 = settings: GST-tagged ING4; sheet Array Heatmap; each array performed twice, total n = 4
Outline: as §1

ING5 = settings: GST-tagged ING5; sheet Array Heatmap; each array performed twice, total n = 4
Outline: as §1

KDM4C (TTP) = settings: GST-tagged KDM4C (TTP = Tandem Tudor domain + PHD); sheet Array Heatmap; each array performed twice, total n = 4
Outline: as §1

KDM5A (1) = settings: GST-tagged KDM5A (1); sheet Array Heatmap; each array performed twice, total n = 4
Outline: as §1

KDM5A (3) = settings: GST-tagged KDM5A (3); sheet Array Heatmap; each array performed twice, total n = 4
Outline: as §1

KDM5B (1) = settings: GST-tagged KDM5B (1); sheet Array Heatmap; each array performed twice, total n = 4
Outline: as §1

KDM5B (3) = settings: GST-tagged KDM5B (3); sheet Array Heatmap; each array performed twice, total n = 4
Outline: as §1

KDM7A = settings: GST-tagged KDM7A; sheet Array Heatmap; each array performed twice, total n = 4
Outline: as §1

MORC3 (CW) = settings: GST-tagged MORC3 (CW = CW-type Zn-finger); sheet Array Heatmap; each array performed twice, total n = 4
Outline: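 A peptide microarray holding 293 synthetic histone peptides with individual or combinatorial modifications was probed with each GST-PHD protein at 0.5 μM. Values represent mean intensity (±SD) from four replicates.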

PHF21A = settings: GST-tagged PHF21A; sheet Array Heatmap; each array performed twice, total n = 4
Outline: as §1

PHF23 = settings: GST-tagged PHF23; sheet Array Heatmap; each array performed twice, total n = 4
Outline: as §1

PHF2 = settings: GST-tagged PHF2; sheet Array Heatmap; each array performed twice, total n = 4
Outline: as §1

PHF8 = settings: GST-tagged PHF8; sheet Array Heatmap; each array performed twice, total n = 4
Outline: as §1

PHRF1 (RP) = settings: for Array Heatmap signal (histone peptide microarray): GST-tagged PHRF1 (RP), sheet Array Heatmap, each array performed twice, total n = 4
Outline: as §1

RAG2 = settings: GST-tagged RAG2; sheet Array Heatmap; each array performed twice, total n = 4
Outline: as §1

SP140L = settings: GST-tagged SP140L; sheet Array Heatmap; each array performed twice, total n = 4
Outline: as §1

TAF3 = settings: GST-tagged TAF3; sheet Array Heatmap; each array performed twice, total n = 4
Outline: as §1

TRIM66 (PB) = settings: GST-tagged TRIM66 (PB = PHD + Bromodomain); sheet Array Heatmap; each array performed twice, total n = 4
Outline: as §1

Row | Substance | Array Heatmap signal (histone peptide microarray) (BAZ2B) | Array Heatmap signal (histone peptide microarray) (BPTF (PB)) | Array Heatmap signal (histone peptide microarray) (CHD4 (PPCC)) | Array Heatmap signal (histone peptide microarray) (CHD5 (PCC)) | Array Heatmap signal (histone peptide microarray) (CHD5 (PPCC)) | Array Heatmap signal (histone peptide microarray) (DIDO1) | Array Heatmap signal (histone peptide microarray) (DPF2 (PPC2W2)) | Array Heatmap signal (histone peptide microarray) (ING1) | Array Heatmap signal (histone peptide microarray) (ING4) | Array Heatmap signal (histone peptide microarray) (ING5) | Array Heatmap signal (histone peptide microarray) (KDM4C (TTP)) | Array Heatmap signal (histone peptide microarray) (KDM5A (1)) | Array Heatmap signal (histone peptide microarray) (KDM5A (3)) | Array Heatmap signal (histone peptide microarray) (KDM5B (1)) | Array Heatmap signal (histone peptide microarray) (KDM5B (3)) | Array Heatmap signal (histone peptide microarray) (KDM7A) | Array Heatmap signal (histone peptide microarray) (MORC3 (CW)) | Array Heatmap signal (histone peptide microarray) (PHF21A) | Array Heatmap signal (histone peptide microarray) (PHF23) | Array Heatmap signal (histone peptide microarray) (PHF2) | further results
1 | H3 (1-20): unmodified H3 N-terminal peptide (1–20) | 0.438 | 0.3262 | 0.5925 | 0.7444 | 0.5462 | 0.7104 | 0.6767 | 0.542 | 0.425 | 0.3305 | 0.431 | 0.4331 | 0.4935 | 0.6198 | 0.5464 | 0.3004 | 0.4267 | 0.4449 | 0.5836 | 0.5688 | relative binding (CHD4 (PPCC); peptide microarray, reader 0.5 μM, n = 4): no difference in binding; Array Heatmap signal (histone peptide microarray) (PHF8): 0.3331; Array Heatmap signal (histone peptide microarray) (PHRF1 (RP)): 0.67; binding preference (PHRF1 (RP); peptide microarray, reader 0.5 μM, n = 4, listed as H3K4me0): strong preference for H3K4me0; also recorded: specifically bound H3K4me0 over K4me; Array Heatmap signal (histone peptide microarray) (RAG2): 0.2786; Array Heatmap signal (histone peptide microarray) (SP140L): 0.461; Array Heatmap signal (histone peptide microarray) (TAF3): 0.2842; Array Heatmap signal (histone peptide microarray) (TRIM66 (PB)): 0.7114
2 | H3K4me1: H3 1-20 [Peptide H3K4me1] | 0.4995 | 0.3638 | 0.5818 | 0.8603 | 0.5953 | 0.6429 | 0.7192 | 0.551 | 0.4885 | 0.3865 | 0.5341 | 0.4924 | 0.6222 | 0.6949 | 0.6104 | 0.37 | 0.5834 | 0.4917 | 0.579 | 0.5242 | Array Heatmap signal (histone peptide microarray) (PHF8): 0.3997; Array Heatmap signal (histone peptide microarray) (PHRF1 (RP)): 0.6701; Array Heatmap signal (histone peptide microarray) (RAG2): 0.3065; Array Heatmap signal (histone peptide microarray) (SP140L): 0.3684; Array Heatmap signal (histone peptide microarray) (TAF3): 0.2998; Array Heatmap signal (histone peptide microarray) (TRIM66 (PB)): 0.6245
3 | H3K4me2: H3 1-20 [Peptide H3K4me2] | 0.5231 | 0.3788 | 0.5852 | 0.8359 | 0.6021 | 0.6829 | 0.7084 | 0.601 | 0.5223 | 0.3985 | 0.5984 | 0.5028 | 0.6851 | 0.6566 | 0.6323 | 0.5271 | 0.6297 | 0.4967 | 0.6135 | 0.5474 | Array Heatmap signal (histone peptide microarray) (PHF8): 0.5074; Array Heatmap signal (histone peptide microarray) (PHRF1 (RP)): 0.5228; Array Heatmap signal (histone peptide microarray) (RAG2): 0.3888; Array Heatmap signal (histone peptide microarray) (SP140L): 0.3615; Array Heatmap signal (histone peptide microarray) (TAF3): 0.3841; Array Heatmap signal (histone peptide microarray) (TRIM66 (PB)): 0.6781
